Experimental data taken from patent US9499502B2, “5-substituted iminothiazines and their mono- and dioxides as BACE inhibitors, compositions, and their use” (Merck Sharp & Dohme Corp., priority 2011, dated 2016).
Like-named read-outs stand apart in the source and are kept apart here.

Tests used:
[1] = target: purified human autoBACE-2 (Homo sapiens (Human), UniProt Q9Y5Z0); assay: BACE-2 Assay (BACE-HTRF assay); type: biochemical; conditions: for inhibition at 10 µM: read-out: inhibition of BACE2 at 10 μM
Method: Inhibitor IC50s at purified human autoBACE-2 are determined in a time-resolved endpoint proteolysis assay that measures hydrolysis of the QSY7-[…]-Eu-amide FRET peptide substrate (BACE-HTRF assay). […] DMSO is present at 5% final concentration in the assay. Following laser excitation of sample wells at 320 nm, the fluorescence signal at 620 nm is collected for 400 ms following a 50 μs delay on a RUBYstar HTRF plate reader (BMG Labtechnologies). Raw RFU data is normalized to maximum (1.0 nM BACE/DMSO) and minimum (no enzyme/DMSO) RFU values. […] The Ki values are calculated from the IC50 using the Cheng-Prusoff equation.

[2] = target: soluble human BACE1 catalytic domain (Homo sapiens (Human), UniProt P56817); assay: BACE1 HTRF FRET Assay; conditions: for inhibition at 10 µM: read-out: BACE1 inhibition, % Inh. at 10 μM, at 10 μM
[3] = Ki calculated from IC50 using the Cheng-Prusoff equation, read-out: BACE2 Ki
[4] = read-out: BACE1 Ki, Ki calculated from IC50 using the Cheng-Prusoff equation

purified human autoBACE-2, sequence (Q9Y5Z0 63-473): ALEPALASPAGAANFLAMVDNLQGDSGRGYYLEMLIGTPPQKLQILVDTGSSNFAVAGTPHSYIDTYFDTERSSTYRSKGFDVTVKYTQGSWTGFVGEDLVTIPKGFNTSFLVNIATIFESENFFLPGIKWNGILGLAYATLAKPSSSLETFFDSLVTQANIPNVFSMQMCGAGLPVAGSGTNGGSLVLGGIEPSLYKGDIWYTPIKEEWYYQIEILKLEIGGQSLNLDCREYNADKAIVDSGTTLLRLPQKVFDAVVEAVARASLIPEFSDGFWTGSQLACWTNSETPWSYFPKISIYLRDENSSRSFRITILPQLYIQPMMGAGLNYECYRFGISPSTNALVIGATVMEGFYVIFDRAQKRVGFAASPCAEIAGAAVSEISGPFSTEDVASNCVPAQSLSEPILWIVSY
soluble human BACE1 catalytic domain, sequence (P56817 75-416): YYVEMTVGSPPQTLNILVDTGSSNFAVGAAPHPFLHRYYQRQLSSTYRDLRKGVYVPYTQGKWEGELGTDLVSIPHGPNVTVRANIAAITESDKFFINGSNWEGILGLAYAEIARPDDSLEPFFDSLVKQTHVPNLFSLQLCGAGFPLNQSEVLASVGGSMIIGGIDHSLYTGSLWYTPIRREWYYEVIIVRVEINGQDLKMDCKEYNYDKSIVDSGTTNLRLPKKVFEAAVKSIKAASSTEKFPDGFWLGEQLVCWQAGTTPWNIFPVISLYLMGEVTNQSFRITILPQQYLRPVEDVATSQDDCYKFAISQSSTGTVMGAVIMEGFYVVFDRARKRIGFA

Row | Compound | Ki [1, 3] | Ki [2, 4] | other results
1 | Cc1nc2ccc(CC3(C)C(=N)N[C@](C)(c4cc(F)ccc4F)CS3(=O)=O)cc2s1 (mixture of isomers) [32b-a and 32b-b] | – | – | inhibition at 10 µM [1]: 1 to 24%; inhibition at 10 µM [2]: 11%
2 | C[C@@]1(C2CC2)C(=N)N[C@](C)(c2cc([N+](=O)[O-])ccc2F)CS1(=O)=O [Entry 30] | – | – | inhibition at 10 µM [1]: 29 to 47%; inhibition at 10 µM [2]: 30%
3 | C[C@@]1(C2CCC2)C(=N)N[C@](C)(c2cc(N)ccc2F)CS1(=O)=O [Entry 40] | – | – | inhibition at 10 µM [1]: 29 to 47%; inhibition at 10 µM [2]: 20%
4 | C[C@@]1(c2cccc(F)c2)C(=N)N[C@](C)(c2cc(N)ccc2F)CS1(=O)=O [Entry 61] | – | – | inhibition at 10 µM [1]: 29 to 47%; inhibition at 10 µM [2]: 27%
5 | C[C@@]1(c2cccc(C(F)(F)F)c2)C(=N)N[C@](C)(c2cc(N)ccc2F)CS1(=O)=O [Entry 69] | – | – | inhibition at 10 µM [1]: 29 to 47%; inhibition at 10 µM [2]: 17%
6 | C[C@@]1(c2ccccn2)C(=N)N[C@](C)(c2cc(N)ccc2F)CS1(=O)=O [Entry 77] | – | – | inhibition at 10 µM [1]: 29 to 47%; inhibition at 10 µM [2]: 25%
7 | C[C@@]1(c2cccc(F)c2)C(=N)N[C@](C)(c2sc(Br)cc2F)CS1(=O)=O [Entry 88] | – | – | inhibition at 10 µM [1]: 29 to 47%; inhibition at 10 µM [2]: 34%
8 | CC1(C)C(=N)N[C@](C)(c2cc(N)ccc2F)CS1(=O)=O [Example 2-2] | – | – | Ki [1]: 500 to 10000 nM; Ki ([2]; read-out: BACE1 inhibition, Ki): 6100 nM
9 | CC1(C)C(=N)N[C@](C)(c2cc(N)cc(F)c2F)CS1(=O)=O [Example 2A-5] | 500 to 10000 nM | – | inhibition at 10 µM [2]: 51%
10 | CC1(C)C(N)=N[C@](C)(c2cc(Br)ccc2F)CS1(=O)=O [Example 3-3] | 500 to 10000 nM | – | inhibition at 10 µM [2]: 56%
11 | CC1(C)C(=N)N[C@](C)(c2sc(Br)cc2Cl)CS1(=O)=O [Example 4-1] | 500 to 10000 nM | – | Ki ([2]; read-out: BACE1 inhibition, Ki): 1500 nM
12 | COc1ccc(C(=O)Nc2cc(F)c(F)c([C@]3(C)CS(=O)(=O)C(C)(C)C(=N)N3)c2F)nc1 [Example 9ac] | 13 nM | 18.9 nM | –
13 | CC1(C)C(=N)N[C@](C)(c2c(F)c(F)cc(NC(=O)c3ccc(C(F)(F)F)cn3)c2F)CS1(=O)=O [Example 9ad] | 41 nM | 7.9 nM | –
14 | COc1cnc(C(=O)Nc2cc(F)c(F)c([C@]3(C)CS(=O)(=O)C(C)(C)C(=N)N3)c2F)cn1 [Example 9ae] | 69 nM | 45.4 nM | –
15 | CC(F)(F)C(=O)Nc1ccc(F)c([C@]2(C)CS(=O)(=O)C(C)(C)C(=N)N2)c1 [Example 9ai] | 18 nM | 82 nM | –
16 | COCC(=O)Nc1ccc(F)c([C@]2(C)CS(=O)(=O)C(C)(C)C(=N)N2)c1 [Example 9at] | 14 nM | 60 nM | –
17 | CC1(C)C(=N)N[C@](C)(c2cc(NC(=O)C3CCC3(F)F)ccc2F)CS1(=O)=O (stereo partly shown) [Example 9aw] | 47 nM | 299 nM | –
18 | CC1(C)C(=N)N[C@](C)(c2cc(NC(=O)c3ccno3)ccc2F)CS1(=O)=O [Example 9ax] | 22 nM | 82 nM | –
19 | CC1(C)C(=N)N[C@](C)(c2cc(NC(=O)c3ncc(F)cc3F)cc(F)c2F)CS1(=O)=O [Example 9ba] | 1 nM | 21 nM | –

Row | Compound | Ki [1, 3] | Ki [2, 4] | other results
20 | CC1(C)C(=N)N[C@](C)(c2cc(NC(=O)C(F)F)cc(F)c2F)CS1(=O)=O [Example 9bd] | 40 nM | 233 nM | –
21 | CC1(C)C(=N)N[C@](C)(c2cc(NC(=O)c3ccc(C(F)(F)F)cn3)cc(F)c2F)CS1(=O)=O [Example 9bf] | 11 nM | 25 nM | –
22 | CC1(C)C(=N)N[C@](C)(c2cc(NC(=O)c3ccc(C#N)cn3)cc(F)c2F)CS1(=O)=O [Example 9bg] | 3 nM | 6 nM | –
23 | Cc1ccc(C(=O)Nc2cc(F)c(F)c([C@]3(C)CS(=O)(=O)C(C)(C)C(=N)N3)c2)nc1 [Example 9bh] | 4 nM | 13 nM | –
24 | CC1(C)C(=N)N[C@](C)(c2cc(NC(=O)c3ccc(Cl)cc3)cc(F)c2F)CS1(=O)=O [Example 9bi] | 9 nM | 22 nM | –
25 | COCC(=O)Nc1cc(F)c(F)c([C@]2(C)CS(=O)(=O)C(C)(C)C(=N)N2)c1 [Example 9bk] | 12 nM | 112 nM | –
26 | CC(F)(F)C(=O)Nc1cc(F)c(F)c([C@]2(C)CS(=O)(=O)C(C)(C)C(=N)N2)c1 [Example 9bl] | 40 nM | 79 nM | –
27 | Cc1cnc(C(=O)Nc2cc(F)c(F)c([C@]3(C)CS(=O)(=O)C(C)(C)C(=N)N3)c2)cn1 [Example 9bo] | 22 nM | 69 nM | –
28 | CC1(C)C(=N)N[C@](C)(c2cc(NC(=O)c3cocn3)cc(F)c2F)CS1(=O)=O [Example 9bu] | 5 nM | 42 nM | –
29 | COc1cnc(C(=O)Nc2cc([C@]3(C)CS(=O)(=O)C(C)(C)C(=N)N3)c(F)cc2Br)cn1 [Example 9by] | 2900 nM | 718 nM | –
30 | CCC1C(=N)N[C@](C)(c2cc(NC(=O)c3ccc(F)cn3)ccc2F)CS1(=O)=O (stereo partly shown) [Example 9ca] | 9 nM | 33 nM | –
31 | CC1(C)C(=N)N[C@](C)(c2nc(NC(=O)c3ccc(Cl)cn3)ccc2F)CS1(=O)=O [Example 9cc] | ≤ 10 nM | 13.7 nM | –
32 | CC1(C)C(=N)N[C@](C)(c2nc(NC(=O)c3ccc(C(F)(F)F)cn3)ccc2F)CS1(=O)=O [Example 9cf] | 40 nM | 25.7 nM | –
33 | COc1cnc(C(=O)Nc2ccc(F)c([C@]3(C)CS(=O)(=O)C(C)(C)C(=N)N3)n2)cn1 [Example 9cg] | 85 nM | 94.2 nM | –
34 | COc1ccc(C(=O)Nc2ccc(F)c([C@]3(C)CS(=O)(=O)C(C)(C)C(=N)N3)n2)nn1 [Example 9ci] | 44 nM | 219 nM | –
35 | CC1(C)C(=N)N[C@](C)(c2nc(NC(=O)c3cnc(C(F)F)cn3)ccc2F)CS1(=O)=O [Example 9cj] | 21 nM | – | –
36 | CC1(C)C(=N)N[C@](C)(c2nc(NC(=O)c3cnc(Br)cn3)ccc2F)CS1(=O)=O [Example 9ck] | ≤ 10 nM | 21.7 nM | –
37 | CC[C@]1(C)C(=N)N[C@](C)(c2cc(NC(=O)c3ccc(OC)cn3)ccc2F)CS1(=O)=O [Example 9cm-b] | 11 to 100 nM | – | –
38 | CC[C@]1(C)C(=N)N[C@](C)(c2cc(NC(=O)c3cnc(OC)cn3)ccc2F)CS1(=O)=O [Example 9cn-b] | 11 to 100 nM | – | –

Row | Compound | Ki [1, 3] | Ki [2, 4] | other results
39 | COc1cnc(C(=O)Nc2ccc(F)c([C@]3(C)CS(=O)(=O)[C@](C)(C4CC4)C(=N)N3)c2)cn1 [Example 9cq-b] | 11 to 100 nM | 96.7 nM | –
40 | COc1cccc2cc(C(=O)Nc3ccc(F)c([C@]4(C)CS(=O)(=O)[C@@](C)(CC5CCOCC5)C(=N)N4)c3)[nH]c12 [Example 9cu-a] | 11 to 100 nM | 46.7 nM | –
41 | C[C@@]1(c2ccccn2)C(=N)N[C@](C)(c2cc(NC(=O)c3ccc(F)cn3)ccc2F)CS1(=O)=O [Example 9cv-b] | 11 to 100 nM | 187 nM | –
42 | C[C@@]1(c2ccccn2)C(=N)N[C@](C)(c2cc(NC(=O)c3ccc(Cl)cn3)ccc2F)CS1(=O)=O [Example 9cw-b] | 11 to 100 nM | 72.7 nM | –
43 | COc1ccc(C(=O)Nc2ccc(F)c([C@]3(C)CS(=O)(=O)[C@](C)(c4ccccn4)C(=N)N3)c2)nc1 [Example 9cx-b] | 101 to 700 nM | 282 nM | –
44 | COc1cnc(C(=O)Nc2ccc(F)c([C@]3(C)CS(=O)(=O)[C@@](C)(c4ccccn4)C(=N)N3)c2)cn1 [Example 9cy-a] | 11 to 100 nM | 6.9 nM | –
45 | COc1cnc(C(=O)Nc2ccc(F)c([C@]3(C)CS(=O)(=O)[C@](C)(c4ccccn4)C(=N)N3)c2)cn1 [Example 9cy-b] | 101 to 700 nM | 209 nM | –
46 | C[C@@]1(c2cc(NC(=O)c3ccc(C(F)(F)F)cn3)ccc2F)CS(=O)(=O)[C@@](C)(c2ccccn2)C(=N)N1 [Example 9cz-a] | 11 to 100 nM | 6 nM | –
47 | C[C@@]1(c2ccccn2)C(=N)N[C@](C)(c2cc(NC(=O)c3ccc(C(F)(F)F)cn3)ccc2F)CS1(=O)=O [Example 9cz-b] | 101 to 700 nM | 181 nM | –
48 | C[C@@]1(c2cccc(F)c2)C(=N)N[C@](C)(c2cc(NC(=O)c3ccc(F)cn3)ccc2F)CS1(=O)=O [Example 9da-b] | 11 to 100 nM | 198 nM | –
49 | C[C@@]1(c2cc(NC(=O)c3ccc(Cl)cn3)ccc2F)CS(=O)(=O)[C@@](C)(c2cccc(F)c2)C(=N)N1 [Example 9db-b] | 11 to 100 nM | – | –
50 | COc1ccc(C(=O)Nc2ccc(F)c([C@]3(C)CS(=O)(=O)[C@@](C)(c4cccc(F)c4)C(=N)N3)c2)nc1 [Example 9dc-a] | 11 to 100 nM | 3 nM | –
51 | COc1cnc(C(=O)Nc2ccc(F)c([C@]3(C)CS(=O)(=O)[C@](C)(c4cccc(F)c4)C(=N)N3)c2)cn1 [Example 9dd-b] | 101 to 700 nM | 228 nM | –
52 | C[C@@]1(c2cccc(F)c2)C(=N)N[C@](C)(c2cc(NC(=O)c3ccc(C(F)(F)F)cn3)ccc2F)CS1(=O)=O [Example 9de-b] | 101 to 700 nM | 175 nM | –
53 | C[C@@]1(c2ccc(F)cc2)C(=N)N[C@](C)(c2cc(NC(=O)c3ccc(F)cn3)ccc2F)CS1(=O)=O [Example 9df-b] | – | 165 nM | Ki [1]: 11 to 100 nM
54 | COc1cnc(C(=O)Nc2ccc(F)c([C@]3(C)CS(=O)(=O)[C@](C)(c4cc(C(F)(F)F)ccn4)C(=N)N3)c2)cn1 [Example 9ee-b] | 11 to 100 nM | – | –
55 | CC1(C)C(=N)N[C@](C)(c2cc(NC(=O)c3cnc(OCC4CC4)cn3)ccc2F)CS1(=O)=O [Example 9p] | 16 nM | – | –
56 | CC1(C)C(=N)N[C@](C)(c2sc(-c3cccc(-c4nnco4)c3)cc2Cl)CS1(=O)=O [Example 27ae] | 21 nM | – | –
57 | COc1cccc2cc(-c3ccc(F)c([C@]4(C)CS(=O)(=O)C(C)(C)C(=N)N4)c3)[nH]c12 [compound 11] | < 200 nM | – | –
